Holding throughout (test): NCI tumour cell line growth inhibition, 48 h
Experiment [1] concerns CAKI-1.
Experiment [2] has as its system SF-539.
Experiment [3] deals with SNB-19.
The subject of experiment [4] is K562.
Experiment [5] concerns KM12.
The test system of experiment [6] is NCI-H460.
For experiment [7], the system named is ACHN.
The subject of experiment [8] is OVCAR-4.
Experiment [9] relates to A498.
The subject of experiment [10] is DU-145.
Experiment [11] concerns MCF7.
Experiment [12] has as its system SW-620.
Experiment [13] relates to HCT-15.
Experiment [14] has as its system SK-MEL-2.
Experiment [15] deals with OVCAR-8.
For experiment [16], the system named is MDA-MB-231.
Experiment [17] has as its system OVCAR-3.
Experiment [18] deals with UACC-257.
Experiment [19] relates to RPMI-8226.
For experiment [20], the system named is HOP-62.

Molecules are shown by their SMILES.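 Where inhibition never reached the appropriate level, the endpoint shown equals the highest concentration tested. Otherwise, values were interpolated linearly from a five-concentration, 48-hour dose response in 96-well plates. Abbreviation: GI50, concentration required for 50% inhibition of growth.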 The source made the active and inactive calls. Cut-off read from the data, not from the text of the source: active = GI50 up to about 1.1 µM and inactive = higher.

With `NC(Cc1ccc(O)c(O)c1)P(=O)(O)O` (centres undefined), the GI50 was > 100 µM (inactive) in experiment [1]; > 100 µM (inactive) in experiment [2]; > 100 µM (inactive) in [3]; 19.6 µM (inactive) in experiment [4]; > 100 µM (inactive) in experiment [5]; > 100 µM (inactive) in experiment [6]. For the same compound, the GI50 is > 100 µM (inactive) in experiment [7]; > 100 µM (inactive) in experiment [8]; > 100 µM (inactive) in experiment [9]; > 100 µM (inactive) in experiment [10]; > 10 µM (inactive) in experiment [11]; 20.1 µM (inactive) in experiment [12]. Moreover, the GI50 is > 100 µM in [13]; > 100 µM (inactive) in [14]; > 100 µM (inactive) in [15]; > 100 µM (inactive) in experiment [16]; > 100 µM (inactive) in experiment [17]; > 100 µM (inactive) in experiment [18]. Besides, the GI50 in experiment [19] was 92.7 µM (inactive).

For the compound `C[C@]12CC(c3ccccc3O1)C(C(N)=O)C(=O)N2` (some centres undefined), the GI50 in [1], in experiment [3], in [4], in experiment [5], in experiment [6] and in [7] was > 100 µM (inactive) throughout. In addition, the GI50 is > 100 µM (inactive) in [8]; > 100 µM (inactive) in [9]; > 100 µM (inactive) in experiment [10]; > 100 µM (inactive) in experiment [11]; > 100 µM (inactive) in experiment [12]; > 100 µM in experiment [13]. Further, the GI50 in experiment [14], in experiment [15], in experiment [20], in [16], in [17] and in experiment [18] was > 100 µM (inactive) throughout. In addition, the GI50 in experiment [19] is > 100 µM (inactive).

As for `O=C(Cc1ccccc1)NCCc1ccc(O)c(O)c1`, the GI50 in experiment [2] is > 100 µM (inactive); in experiment [3], > 100 µM (inactive); in [4] it was 17.9 µM (inactive); in experiment [5], > 100 µM (inactive); in [6], > 100 µM (inactive); in experiment [7], 64.4 µM (inactive). Also, the GI50 in experiment [8] is 13 µM (inactive); in experiment [9], > 100 µM (inactive); in experiment [10], > 100 µM (inactive); in [11], > 100 µM (inactive); in [12], > 100 µM (inactive); in experiment [13], 54.1 µM. The GI50 was 24.8 µM (inactive) in experiment [14]; > 100 µM (inactive) in [15]; > 100 µM (inactive) in experiment [20]; 37.2 µM (inactive) in experiment [16]; 35 µM (inactive) in [17]; > 100 µM (inactive) in experiment [18]. Also, in [19], the GI50 was 15.6 µM (inactive).

In the case of `O=C1c2c(ccc3c2CCCC3)CC1Cc1ccc2c(c1)CCCC2` (centres undefined), the GI50 in [2] was > 100 µM (inactive); in experiment [3] it was > 100 µM (inactive); in [4], 36.1 µM (inactive); in experiment [5] it was 59.2 µM (inactive); in experiment [6], 38.5 µM (inactive); in experiment [7] it was 80.4 µM (inactive). For the same compound, the GI50 in [8] was 28.8 µM (inactive); in [9], > 100 µM (inactive); in experiment [10], 83.4 µM (inactive); in experiment [11] it was 27.2 µM (inactive); in experiment [12], 61.7 µM (inactive); in [13] it was 36.1 µM. Further, the GI50 in [14] was 47.3 µM (inactive); in [15], 88.3 µM (inactive); in [20], 87.7 µM (inactive); in experiment [16], 37.2 µM (inactive); in experiment [17], > 100 µM (inactive); in experiment [18] it was 28.3 µM (inactive). Moreover, the GI50 in experiment [19] is 21.6 µM (inactive).

As to `C/C(=C\CNc1ncnc2[nH]c(Cl)nc12)CO`, the GI50 in [1], in experiment [2], in experiment [3], in [4], in experiment [5] and in experiment [6] was > 100 µM (inactive) throughout. The GI50 in [7], in [8], in experiment [9], in [10], in experiment [11] and in experiment [12] was > 100 µM (inactive) each time. For the same compound, the GI50 in experiment [15], in [20], in [16], in experiment [17], in experiment [18] and in [19] was > 100 µM (inactive) each time.

For `COc1ccc(NC2=CC(=O)C(=O)c3ccccc32)nn1`, the GI50 in experiment [1] was 2.19 µM (inactive); in [2] it was 0.902 µM (active); in experiment [3], 2.9 µM (inactive); in experiment [4], 0.224 µM (active); in [5], 0.361 µM (active); in experiment [6] it was 1.54 µM (inactive). Besides, the GI50 was 1.66 µM (inactive) in experiment [7]; 1.41 µM (inactive) in [8]; 1.73 µM (inactive) in [9]; 1.45 µM (inactive) in experiment [10]; 0.557 µM (active) in experiment [11]; 1.29 µM (inactive) in [12]. Besides, the GI50 in experiment [13] was 0.423 µM; in experiment [14], 1.95 µM (inactive); in [15] it was 1.67 µM (inactive); in [16] it was 3.69 µM (inactive); in experiment [17], 1.2 µM (inactive); in [18] it was 1.72 µM (inactive). In [19], the GI50 is 1.51 µM (inactive).

Turning to `CC1(C)C(C(=O)OC(C#N)c2cccc(OCC(=O)OCc3ccccc3)c2)C1(C)C` (centres undefined), the GI50 in [1] is > 100 µM (inactive); in [2], > 100 µM (inactive); in experiment [3], > 100 µM (inactive); in experiment [4], 2.36 µM (inactive); in experiment [5] it was > 100 µM (inactive); in experiment [6] it was > 100 µM (inactive). Besides, the GI50 is > 100 µM (inactive) in experiment [7]; > 100 µM (inactive) in experiment [8]; > 100 µM (inactive) in [9]; > 100 µM (inactive) in experiment [10]; 53 µM (inactive) in experiment [11]; 70.3 µM (inactive) in experiment [12]. Moreover, the GI50 in experiment [13] was > 100 µM; in experiment [14], 20.4 µM (inactive); in [15], 35.2 µM (inactive); in experiment [20] it was > 100 µM (inactive); in [16], 66.1 µM (inactive); in [17], > 100 µM (inactive). In [18], the GI50 was 55.6 µM (inactive).

As to `O=C1CSC(c2c[nH]c3ccccc23)N1c1ccc(Cl)cc1` (centres undefined), the GI50 in experiment [2], in experiment [3], in experiment [4], in experiment [5], in [6] and in experiment [7] was > 100 µM (inactive) each time. In addition, the GI50 is > 100 µM (inactive) in experiment [8]; > 100 µM (inactive) in [9]; > 100 µM (inactive) in experiment [10]; > 100 µM (inactive) in experiment [11]; > 100 µM (inactive) in experiment [12]; > 100 µM in experiment [13]. Further, the GI50 in experiment [14], in experiment [15], in experiment [20], in experiment [16], in experiment [17] and in [18] was > 100 µM (inactive) each time. The GI50 in [19] is > 100 µM (inactive).

For `COC(=O)CCC12CCC(O1)c1ccccc12` (centres undefined), the GI50 in [1], in experiment [2], in experiment [3], in [4], in experiment [5] and in [6] was > 100 µM (inactive) in each case. Moreover, the GI50 in [7], in experiment [8], in experiment [9], in experiment [10], in experiment [11] and in experiment [12] was > 100 µM (inactive) throughout. Besides, the GI50 was > 100 µM in experiment [13]; > 100 µM (inactive) in experiment [15]; > 100 µM (inactive) in experiment [20]; > 100 µM (inactive) in experiment [16]; > 100 µM (inactive) in experiment [18]; > 100 µM (inactive) in [19].

On to `Brc1ccc(C2(N3CCCCC3)CCCCC2)s1`, for which the GI50 in experiment [1] is > 100 µM (inactive); in experiment [3], 73.1 µM (inactive); in experiment [4] it was 21.1 µM (inactive); in experiment [5], 28.4 µM (inactive); in experiment [6], 26.7 µM (inactive); in experiment [7] it was 51.1 µM (inactive). The GI50 is 40.7 µM (inactive) in experiment [8]; 66.7 µM (inactive) in experiment [9]; 56.6 µM (inactive) in experiment [10]; 30.9 µM (inactive) in experiment [11]; 31.8 µM (inactive) in experiment [12]; 19 µM (inactive) in experiment [14]. Also, the GI50 in [20] was 57.5 µM (inactive); in experiment [16], 32 µM (inactive); in experiment [17], 38.7 µM (inactive); in experiment [18] it was 29.8 µM (inactive); in experiment [19] it was 19.6 µM (inactive).

With `c1csc(-c2cc(-c3ccsc3)c(-c3ccsc3)s2)c1`, the GI50 in experiment [1], in [2], in experiment [3], in [4], in [5] and in experiment [6] was > 100 µM (inactive) each time. Besides, the GI50 is > 100 µM (inactive) in [7]; > 100 µM (inactive) in [8]; > 100 µM (inactive) in [9]; > 100 µM (inactive) in experiment [10]; 24.8 µM (inactive) in experiment [11]; > 100 µM (inactive) in [12]. Also, the GI50 in [13] is 24 µM; in [15], > 100 µM (inactive); in experiment [20], > 100 µM (inactive); in [16], > 100 µM (inactive); in [17], > 100 µM (inactive); in experiment [18], > 100 µM (inactive).

The values above are taken from ChEMBL document CHEMBL1201862, “PubChem BioAssay data set” (2004).
